Data published in patent publication US20100048575A1, “NOVEL TETRACYCLIC INHIBITORS OF CYSTEINE PROTEASES, THE PHARMACEUTICAL COMPOSITIONS THEREOF AND THEIR THERAPEUTIC APPLICATIONS” (priority 2006, published 2010).

What was measured:
USP7 = target: T1, USP7 (Homo sapiens, UniProt Q93009); experiment: USP7 activity assay (Ub-AMC); assay type: biochemical; details: 400 nM Ub-AMC, 152 pM enzyme, 30 min pre-incubation, 60 min at 37° C., sigmoidal fit; read-out: USP7 (inhibition of cysteine protease activity)
T1 construct: His tag (from vector pFastBac-HT) (N); made in house; host or cells: insect cells (Sf9 or High Five), baculovirus
Text: The cDNA encoding USP7 was obtained by PCR amplification from placenta mRNA. USP7 cDNA was subcloned by PCR into a baculovirus expression vector (pFastBac-HT; Invitrogen). A cDNA encoding a mutated USP7 was generated by mutagenic PCR. The corresponding protein encodes a cysteine to alanine substitution at residue 223. The sequences were ascertained by sequencing of the entire open reading frame. Bacmids encoding […] were generated following DH10bac transposition. The corresponding bacmids were transfected into insect cells (Sf9). Viruses were recovered from culture supernatant and amplified twice. Insect cells (Sf9 or High Five; Invitrogen) were infected for 72 hours. Total cell lysates were harvested and lyzed in lysis buffer-(Tris HCl 50 mM pH7.6; 0.75% NP40; 500 mM NaCl; 10% glycerol; 1 mM DTT; 10 mM imidazole; Protease Inhibitor Cocktail; AEBSF 20 μg.ml^−1; Aprotinin 10 μg.ml^−1). Proteins were affinity purified on metal affinity resins (Talon Metal affinity resin; BD Biosciences). Bound materials were extensively washed in wash buffer (50 mM Sodium Phosphate pH7.0; 300 mM NaCl; 10 mM imidazole; 0.5% Triton X-100; 10% glycerol) and eluted from the resin in 250 mM imidazole-containing wash buffer. Proteins were dialyzed in dialysis buffer (Tris HCl pH 7.6 20 mM; NaCl 200 mM; DTT 1 mM; EDTA 1 mM; 10% Glycerol). Proteins purifications were analyzed on 4-12% NuPAGE (Invitrogen).
(§1) USP7 was diluted in USP buffer (50 mM Tris HCl; 0.5 mM EDTA; 5 mM DTT; 0.01% Triton X-100; Bovine Serum Albumin 0.05 mg.ml^−1 pH7.6). Compounds stocks (100 mM) were stored at −20° C. in DMSO. Compounds were tested at the following final concentrations: 100 μM; 33.3 μM; 11.1 μM; 3.7 μM; 1.23 μM; 412 nM; 137 nM; 45.7 nM; 15.2 nM; 5 nM.
Reactions were performed as duplicates in Black LJL 96 well plates (HE microplates; Molecular Devices; 20 μl final reaction volume). The substrate concentration for USP7 was 400 nM Ub-AMC (Chem. Biol., 2003, 10, p. 837-846) (Boston Biochem). The concentrations of the enzyme (USP7) in specificity assays was 152 pM. The concentrations were determined in order to perform specificity assays under initial velocities at fixed substrate concentration. Compounds were pre-incubated with enzymes for 30 minutes at 25° C. Reactions were initiated by addition of substrate to the plates containing the enzymes (+/−compounds) diluted in assay buffer. Reactions were incubated for 60 minutes at 37° C. Reactions were stopped by adding acetic acid (100 mM final). Readings were performed on a Pherastar Fluorescent Reader (BMG). λ Emission 380 nm; λ Excitation=460 nm. Data (mean values +/−standard deviation) were analyzed as % of control (no compound) and plotted as percentage versus the Log of the compound concentration using GraphPad (Prism). Data were fitted to a sigmoidal model (variable slope).

Uch-L3 = target: T2, Uch-L3 (Homo sapiens, UniProt P15374); experiment: UCH-L3 activity assay (Ub-AMC); assay type: biochemical; details: 400 nM Ub-AMC, 13 pM enzyme, 30 min pre-incubation, 60 min at 37° C., sigmoidal fit; read-out: Uch-L3 (inhibition of cysteine protease activity)
T2 sequence (P15374 1-230): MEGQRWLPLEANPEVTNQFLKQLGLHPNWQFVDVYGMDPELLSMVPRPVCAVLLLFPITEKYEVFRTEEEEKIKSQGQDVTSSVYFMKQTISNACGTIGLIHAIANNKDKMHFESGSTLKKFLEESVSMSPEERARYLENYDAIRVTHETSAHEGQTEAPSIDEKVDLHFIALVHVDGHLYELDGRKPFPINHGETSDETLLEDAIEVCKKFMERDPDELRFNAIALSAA
Experimental: as §1, with “Uch-L3 was” for “USP7 was”, “45.7 nM,” for “45.7 nM;”
Reactions were performed as duplicates in Black LJL 96 well plates (HE microplates; Molecular Devices; 20 μl final reaction volume). The substrate concentration for Uch-L3 was 400 nM Ub-AMC (Boston Biochem). The concentration of the enzyme (Uch-L3) in specificity assays was 13 pM. The concentrations were determined in order to perform specificity assays under initial velocities at fixed substrate concentration. Compounds were pre-incubated with enzymes for 30 minutes at 25° C. Reactions were initiated by addition of substrate to the plates containing the enzymes (+/−compounds) diluted in assay buffer.
Reactions were incubated for 60 minutes at 37° C. Reactions were stopped by adding acetic acid (100 mM final). Readings were performed on a Pherastar Fluorescent Reader (BMG). δ Emission 380 nm; 6 Excitation=460 nm. Data (mean values +/−standard deviation) were analyzed as % of control (no compound) and plotted as percentage versus the Log of the compound concentration using GraphPad (Prism). Data were fitted to a sigmoidal model (variable slope).

T1 sequence (Q93009 whole entry): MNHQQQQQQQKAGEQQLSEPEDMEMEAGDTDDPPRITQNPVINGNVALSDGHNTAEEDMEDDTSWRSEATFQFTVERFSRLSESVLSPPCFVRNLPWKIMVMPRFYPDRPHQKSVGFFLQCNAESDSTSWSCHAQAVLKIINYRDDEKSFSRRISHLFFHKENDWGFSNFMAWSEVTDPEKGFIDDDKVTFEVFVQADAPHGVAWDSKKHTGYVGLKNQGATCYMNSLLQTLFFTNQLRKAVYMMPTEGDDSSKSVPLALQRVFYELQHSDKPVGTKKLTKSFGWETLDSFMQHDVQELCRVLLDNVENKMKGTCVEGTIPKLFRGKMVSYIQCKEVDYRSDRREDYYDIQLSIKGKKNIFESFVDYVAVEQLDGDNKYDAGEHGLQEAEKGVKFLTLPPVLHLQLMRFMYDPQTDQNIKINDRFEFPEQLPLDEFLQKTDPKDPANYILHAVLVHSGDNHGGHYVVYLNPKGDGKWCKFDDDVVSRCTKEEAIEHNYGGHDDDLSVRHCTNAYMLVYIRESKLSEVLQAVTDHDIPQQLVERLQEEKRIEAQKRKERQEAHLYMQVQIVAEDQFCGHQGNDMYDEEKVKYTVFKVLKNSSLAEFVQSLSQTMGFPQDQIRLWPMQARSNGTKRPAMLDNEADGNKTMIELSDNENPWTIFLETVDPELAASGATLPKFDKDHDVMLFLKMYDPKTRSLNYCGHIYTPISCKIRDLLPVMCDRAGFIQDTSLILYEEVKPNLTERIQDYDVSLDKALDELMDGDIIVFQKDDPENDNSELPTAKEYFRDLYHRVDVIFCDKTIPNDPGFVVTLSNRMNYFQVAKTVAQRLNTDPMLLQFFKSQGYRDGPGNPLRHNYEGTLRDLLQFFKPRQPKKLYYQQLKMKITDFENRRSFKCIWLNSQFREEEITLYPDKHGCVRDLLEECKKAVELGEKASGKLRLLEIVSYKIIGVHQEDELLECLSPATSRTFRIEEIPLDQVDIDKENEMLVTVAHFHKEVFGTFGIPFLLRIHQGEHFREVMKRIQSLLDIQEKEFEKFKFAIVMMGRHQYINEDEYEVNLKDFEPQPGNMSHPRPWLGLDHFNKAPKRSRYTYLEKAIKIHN

SMILES | IC50 (USP7) | IC50 (Uch-L3)
CON=C1c2ccccc2-c2nn3c(C)nnc3nc21 (mixture of isomers) [5a, 3-Methyl-1,2,3a,4,10-pentaaza-cyclopenta[b]fluoren-9-one O-methyl-oxime] | 4 µM | 410 nM
C=CCON=C1c2ccccc2-c2nn3c(C)nnc3nc21 (mixture of isomers) [5b, 3-Methyl-1,2,3a,4,10-pentaaza-cyclopenta[b]fluoren-9-one O-allyl-oxime] | 3.14 µM | 272 nM
C=CCON=C1c2ccccc2-c2nn3c(CCCC)nnc3nc21 (mixture of isomers) [5d, 3-Butyl-1,2,3a,4,10-pentaaza-cyclopenta[b]fluoren-9-one O-allyl-oxime] | 5.35 µM | 250 nM
CCCCCCCCCCON=C1c2ccccc2-c2nn3nnnc3nc21 (mixture of isomers) [8a, 1,2,3,3a, 4,10-Hexaaza-cyclopenta[b]fluoren-9-one O-decyl-oxime] |  | 2000 nM
COCCON=C1c2ccccc2-c2nn3nnnc3nc21 (mixture of isomers) [8b, 1,2,3,3a, 4,10-Hexaaza-cyclopenta[b]fluoren-9-one O-(2-methoxy-ethyl)-oxime] | 0.47 µM | 48 nM
c1ccc(OCCCON=C2c3ccccc3-c3nn4nnnc4nc32)cc1 (mixture of isomers) [8c, 1,2,3,3a,4,10-Hexaaza-cyclopenta[b]fluoren-9-one O-(3-phenoxy-propyl)-oxime] | 1.78 µM | 121 nM
C=CCON=C1c2ccccc2-c2nn3nnnc3nc21 (mixture of isomers) [compound 6, 1,2,3,3a,4,10-hexaaza-cyclopenta[b]fluoren-9-one O-allyl-oxime] | 0.305 µM | 32 nM
ON=C1c2ccccc2-c2nn3nnnc3nc21 (mixture of isomers) [compound 7, 1,2,3,3a,4,10-hexaaza-cyclopenta[b]fluoren-9-one oxime] | 0.657 µM | 57 nM

Continued, values first:

IC50 (USP7) | IC50 (Uch-L3) | SMILES
4.84 µM |  | CCc1nnc2nc3c(nn12)-c1ccccc1C3=NOC (mixture of isomers) [10b, 3-Ethyl-1,2,3a,4,10-pentaaza-cyclopenta[b]fluoren-9-one O-methyl-oxime]
3.11 µM |  | CCON=C1c2ccccc2-c2nn3c(CC)nnc3nc21 (mixture of isomers) [10d, 3-Ethyl-1,2,3a,4,10-pentaaza-cyclopenta[b]fluoren-9-one O-ethyl-oxime]
3.25 µM | 235 nM | C=CCON=C1c2ccccc2-c2nn3c(CC)nnc3nc21 (mixture of isomers) [10f, 3-Ethyl-1,2,3a,4,10-pentaaza-cyclopenta[b]fluoren-9-one O-allyl-oxime]
7.28 µM |  | CCc1nnc2nc3c(nn12)-c1ccccc1C3=NOCc1ccccc1 (mixture of isomers) [10h, 3-Ethyl-1,2,3a,4,10-pentaaza-cyclopenta[b]fluoren-9-one O-benzyl-oxime]
